Results published in patent publication US6462170B1, “UPAR mimicking peptide” (Fondazione Centro San Raffaele del Monte Tabor, priority 1997, dated 2002).
Entries after “also recorded” stand apart in the source; their conditions may differ.

Experiments:
THP-1 cells = experiment: Chemotaxis assay in modified Boyden chambers; assay type: cell-based, human; conditions: for chemotactic response of THP-1 cells: Boyden chamber, 90 minutes, migration as percent of control, over the concentration range analyzed; for concentration giving maximal chemotactic response: THP-1 cells, FIG. 4 panels A and C; for concentration at which very potent chemotactic activity is seen: human THP-1 monocytoid cells (and murine LB6 fibroblastic cells)
Protocol: FIG. 3. […] For each set of experiments, migration toward the assay medium served as control (random cell migration) and is referred to as 100% migration. All experiments were performed in triplicate; the number of cells counted per high power field (ten fields for each condition) is expressed as percent of the control values. The proteins were purified as described in the Methods section. Data points represent the mean of three independent experiments (+SEM). The constructs used are depicted in FIG. 2.
Chemotaxis analysis were performed using modified Boyden chambers containing polyvinylpyrrolidone polycarbonate filters (13 mm diameter, […]) coated with collagen type I ([…] in PBS pH 7.4). The coated filters were washed with medium supplemented with 0.2% bovine serum albumin (BSA) and then placed in the Boyden apparatus. After acid wash, 2×10^5 THP-1 cells suspended in serum-free medium were added above the filter in the Boyden chamber. Purified mutants were diluted in serum-free medium at the indicated concentrations and added below the filter in the lower chamber. The chambers were incubated in a humidified incubafor at 37° C. in 5% CO2 in air for 90 minutes. Filters were removed, the upper surface scraped free of cells, fixed in methanol and stained with crystal violet. For each set of experiments, migration toward the assay medium served as control (random cell migration) and is referred to as 100% migration. All experiments were performed in triplicate; data are reported as number of cells counted for high power field (ten fields for each condition) and expressed as percentage of the control values. Data points represent the mean of three independent experiments (+SEM). When cells of the fibroblast-type or cancer cells were employed for the assay, the time required for migration was higher and the Boyden chamber were usually incubated overnight.

[1] = tested on: cells binding to D1(1-92)- or peptide-coated plates; experiment: Panning / cell adhesion on coated plastic plates; assay type: cell-based; conditions: for adhesion of mammalian cells to plastic plates coated with the substance: bacterial-grade plastic dishes coated with the substance; for inhibition of adhesion of cells onto D1(1-92): plates coated with D1(1-92)
Protocol: However, when those plates are coated with peptide 1 or 2 (or domain D1-1-92) or with recombinant forms of these peptides, they adhere because they express on their surface specific D1(1-92)-binding proteins. The adhesion can be measured.
As a positive control (i.e. to set up the technique), cells (106) exposing a high number of uPAR molecules are used and the panning is carried out on plates coated with a specific anti-uPAR antibody. As a negative control, the same cells but now not expressing uPAR are employed. The cells employed as negative controls are LB6, 32D, 3T3 fibroblasts, B-lymphoid cell lines and others. As positive controls, THP-1 cells, LB6/uPAR, 32D/uPAR and other expressing cell lines are employed.
For the screening assay, the same cells employed as negative controls (106) are used, and the plates are coated with domain D1(1-92) or domain D1(1-87) (control). The ability of the cells to bind to the plates is tested after 30-300 minutes incubation at 37° C. by microscopic inspection, or by staining the plates with Coomassie Blue. The same can be done using different techniques.
The ability of peptides 1- or 2-coated plates to specifically bind the THP-1 cells is the basis for the screening technique, as any compound capable of inhibiting this binding is a potential antiinflammatory agent, inhibiting chemotaxis. […] Such compounds, therefore, can be tested as inhibitors of chemotaxis, employing the methods outlined in examples 1-3. Coating can also be carried out with other recombinant forms of the SRSRY (SEQ ID NO:7) sequence in which the epitope is synthesized in fusion with other proteins. Suitable proteins are ferritin (Sidoli et al. (1993)), thioredoxin, GST, beta galactosidase, human serum albumin.

p56/p59hck = p56/p59hck immunoprecipitation and in vitro kinase assay after treatment of THP-1 cells; assay type: cell-based, human
Protocol: FIG. 5. In this figure, the stimulating effect of peptide 1 on the activity of Hck kinase of THP-1 cells is shown. THP-1 cells were metabolically labelled with [35S]-TransLabel, acid washed, and either mock-treated or treated with 0.1 nM peptide 1 (AVTYSRSRYLEC, (SEQ ID NO:1)) for the indicated time at 37° C. Radiolabelled cell lysates were immunoprecipitated (Resnati et al., 1996) using an affinity-purified rabbit polyclonal anti-p56/p59hck antibody.
(A) An aliquot from each immunoprecipitate was directly analyzed by SDS-PAGE to control that equal amount of p56/p59hck were present during in vitro kinase assay.
(B) The remainder of each immunoprecipitate was subjected to in vitro kinase assay in presence of […] of [g-32P]ATP (˜3000 Ci/mmol, Amersham) and […] rabbit muscle enolase for 5 minutes at room temperature. Eluates were thus analyzed by SDS-PAGE autobiography (7.5% acrylamide).
The mixture of chymotrypsin fragments of suPAR, like the uPA/uPAR interaction, induces chemotaxis by transiently activating the p56/p59hck protein kinase (Resnati et al., 1996). If human uPAR-related peptides containing the SRSRY (SEQ ID NO:7) motif induce a chemotactic response on THP-1 cells though the same mechanism exploited by the uPA/uPAR interaction (i.e. by binding to the unidentified adaptor), they should also activate p56/p59hck. THP-1 cells were metabolically labelled with [35S]-TransLabel, acid washed, and either mock-treated or treated with 0.1 nM peptide 1 (AVTYSRSRYLEC (SEQ ID NO:1)) for the indicated time at 37° C. Radiolabelled cell lysates were immunoprecipitated (Resnati et al.,1996) using an affinity-purified rabbit polyclonal anti-p56/p59hck antibody. An aliquot from each immunoprecipitate was directly analyzed by SDS-PAGE to control that equal amount of p56/p59hck were present during in vitro kinase assay (FIG. 5, panel A). The remainder of each immunoprecipitate was subjected to in vitro kinase assay in presence of […] of [g-32P)]ATP (˜3000 Ci/mmol, Amersham) and […] rabbit muscle enolase (substrate) for 5 minutes at room temperature. Eluates were thus analyzed by SDS-PAGE autobiography (7.5% acrylamide). […] The effect was very rapid, since p56/pS9hck stimulation was already- evident after 2 minutes, reached a maximum after […] and returned to the basal level 30 minutes after the addition of the peptide. No effect on p56/p59hck activity was observed when 0.1 nM of the corresponding scrambled peptide was used in the assay (data not shown). The time-course of the effect is identical to that observed with the addition of ATF or of chymotryptic uPAR fragments to THP-1 cells and reported previously (Resnati et al., 1996).

uPAR = uPAR (Homo sapiens, UniProt Q03405); conditions: read-out: affinity of binding to uPAR; cited from earlier work
Chain of uPAR (Q03405 23-305): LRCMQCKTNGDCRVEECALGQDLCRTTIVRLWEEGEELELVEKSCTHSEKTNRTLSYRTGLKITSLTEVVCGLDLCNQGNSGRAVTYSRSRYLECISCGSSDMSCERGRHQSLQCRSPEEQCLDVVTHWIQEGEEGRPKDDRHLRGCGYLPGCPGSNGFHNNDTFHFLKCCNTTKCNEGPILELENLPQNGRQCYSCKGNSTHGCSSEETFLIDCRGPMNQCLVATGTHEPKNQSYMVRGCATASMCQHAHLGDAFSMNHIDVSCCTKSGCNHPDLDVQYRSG

| Substance | chemotactic response of THP-1 cells (THP-1 cells) | concentration giving maximal chemotactic response (THP-1 cells) | concentration at which very potent chemotactic activity is seen (THP-1 cells) | adhesion of mammalian cells to plastic plates coated with the substance [1] | inhibition of adhesion of cells onto D1(1-92) [1] | also measured |
| --- | --- | --- | --- | --- | --- | --- |
| YTARLWGGTLLT [peptide 3, reference compound] | no effect on cell migration | – | – | – | – | – |
| SRSRYLEC [peptide 2] | dose-dependent chemotactic effect; also recorded: very potent activity | 0.1 pM | 0.1 pM | adhere | inhibit adhesion | – |
| TLVEYYSRASCR [reference compound] | no effect on cell migration | – | – | – | cannot | effect on p56/p59hck activity (p56/p59hck; 0.1 nM (data not shown)): No effect; chemotactic response of THP-1 cells (THP-1 cells; listed as peptide-1 scrambled): do not |
| AVTYSRSRYLEC [peptide 1] | dose-dependent chemotactic effect; also recorded: very potent activity | 0.1 pM | 0.1 pM | adhere | inhibit adhesion | time at which p56/p59hck stimulation is already evident (p56/p59hck; 0.1 nM peptide): 2 min; autophosphorylation of p56/p59hck (p56/p59hck; 0.1 nM peptide, 37° C.): increase; phosphorylation of the exogenous substrate (rabbit muscle enolase) (p56/p59hck; 0.1 nM peptide, 37° C.): increase; time of return of p56/p59hck activity to the basal level (p56/p59hck; 0.1 nM peptide, after addition of the peptide): 30 min |
| vitronectin: protein bound by uPAR domains D2 and D3 | – | – | – | – | – | Kd (uPAR): 10 to 20 nM |
